Experimental data from US9388162B2, “Substituted morphinans and the use thereof” (Purdue Pharma L.P., priority 2012, dated 2016).

Columns and labels:
[1] = target: T1, μ-opioid receptors (Homo sapiens (Human), UniProt P35372); assay: μ-opioid receptor [35S]GTPγS functional assay, HEK-293 cells; assay type: biochemical; details: μ GTP; for EC50: read-out: Activity Response μ EC50 (nM) [mean ± SEM]; for Emax: relative to DAMGO, read-out: Activity Response μ Emax (%)
Description: [^35S]GTPγS functional assays were conducted using freshly thawed μ-receptor membranes prepared from a cell line expressing recombinant μ opioid receptor in a HEK-293, CHO or U-2 OS cell background or purchased from a commercial source (Perkin Elmer, Shelton, Conn.; or DiscovRx, Fremont, Calif.). Assay reactions were prepared by sequentially adding the following reagents to binding buffer (100 mM NaCl, 10 mM MgCl2, 20 mM HEPES, pH 7.4) on ice (final concentrations indicated): membrane protein (0.026 mg/mL), saponin ([…]), GDP ([…]) and [^35S]GTPγS (0.20 nM; Perkin Elmer, Shelton, Conn.). The prepared membrane solution (190 μl/well) was transferred to 96-shallow well polypropylene plates containing 10 μl of 20× concentrated stock solutions of the agonist [D-Ala^2, N-methyl-Phe^4 Gly-ol^5]-enkephalin (DAMGO) prepared in dimethyl sulfoxide (DMSO). Plates were incubated for 30 min at about 25° C. with shaking. Reactions were terminated by rapid filtration onto 96-well Unifilter GF/B filter plates (Perkin Elmer, Shelton, Conn.) using a 96-well tissue harvester (Perkin Elmer, Shelton, Conn.) followed by three filtration washes with 200 μl of ice-cold wash buffer (10 mM NaH2PO4, 10 mM Na2HPO4, pH 7.4). Filter plates were subsequently dried at 50° C. for 2-3 hours. BetaScint scintillation cocktail (Perkin Elmer, Shelton, Conn.) was added (50 μl/well) and plates were counted using a Packard Top-Count for 1 min/well. Data were analyzed using the sigmoidal dose-response curve fitting functions in GraphPad PRISM v. 3.0, or an in-house function for non-linear, sigmoidal dose-response curve-fitting.
μ GTP EC50 is the concentration of a compound providing 50% of the maximal response for the compound at a μ-opioid receptor.
μ GTP Emax (%) is the maximal effect elicited by a compound relative to the effect elicited by DAMGO, a standard μ agonist. Generally, the μ GTP Emax (%) value measures the efficacy of a compound to treat or prevent pain or other Conditions.
(§1) The following tables provide results on the efficacy of binding and activity response of exemplified Compounds of the Invention at the μ- and κ-opioid receptors. In TABLE 3, binding affinity of certain Compounds of the Invention to the μ- and κ-opioid receptors was determined as described above. In TABLE 4, activity response of certain Compounds of the Invention to the μ- and κ-opioid receptors was determined as described above for functional assays using HEK-293 cells. In TABLE 5, activity response of certain Compounds of the Invention to the μ- and κ-opioid receptors was determined as described above using U-2 OS cells.

[2] = target: T1, μ-opioid receptors; assay: μ-opioid receptor radioligand dose-displacement binding assay ([3H]-diprenorphine); details: mean ± SEM, read-out: Binding Affinity Opioid Receptor Ki (nM) [mean ± SEM] μ
Description: Radioligand dose-displacement binding assays for μ-opioid receptors used 0.3 nM [^3H]-diprenorphine (Perkin Elmer, Shelton, Conn.), with […] membrane protein/well in a final volume of 500 μl binding buffer (10 mM MgCl2, 1 mM EDTA, 5% DMSO, 50 mM HEPES, pH 7.4). Reactions were carried out in the absence or presence of increasing concentrations of unlabeled naloxone. All reactions were conducted in 96-deep well polypropylene plates for 2 hours at room temperature. Binding reactions were terminated by rapid filtration onto 96-well Unifilter GF/C filter plates (Perkin Elmer, Shelton, Conn.), presoaked in 0.5% polyethylenimine using a 96-well tissue harvester (Perkin Elmer, Shelton, Conn.) followed by performing three filtration washes with 500 μl of ice-cold binding buffer. Filter plates were subsequently dried at 50° C. for 2-3 hours. BetaScint scintillation cocktail (Perkin Elmer, Shelton, Conn.) was added (50 μl/well), and plates were counted using a Packard Top-Count for 1 min/well. The data were analyzed using the one-site competition curve fitting functions in GraphPad PRISM™ v. 3.0 or higher (San Diego, Calif.), or an in-house function for one-site competition curve-fitting.
as §1

[3] = target: recombinant human kappa opioid receptor (κ) (Homo sapiens (Human), UniProt P41145); assay: κ-opioid receptor radioligand dose displacement binding assay ([3H]-U69,593); details: mean ± SEM, read-out: Binding Affinity Opioid Receptor Ki (nM) [mean ± SEM] κ
Description: (§2) Membranes from HEK-293 cells, CHO or U-2 OS cells expressing the recombinant human kappa opioid receptor (κ) were prepared by lysing cells in ice cold hypotonic buffer (2.5 mM MgCl2, 50 mM HEPES, pH 7.4) (10 mL/10 cm dish) followed by homogenization with a tissue grinder/Teflon pestle. Membranes were collected by centrifugation at 30,000×g for 15 min at 4° C. and pellets were resuspended in hypotonic buffer to a final concentration of 1-3 mg/mL. Protein concentrations were determined using the BioRad protein assay reagent with bovine serum albumen as standard. Aliquots of κ receptor membranes were stored at −80° C.
Radioligand dose displacement assays used 0.4 nM [^3H]-U69,593 (GE Healthcare, Piscataway, N.J.; 40 Ci/mmole) with 15 μg membrane protein (recombinant κ opioid receptor expressed in HEK 293 cells; in-house prep) in a final volume of 200 μl binding buffer (5% DMSO, 50 mM Trizma base, pH 7.4). Non-specific binding was determined in the presence of 10 μM unlabeled naloxone or U69,593. All reactions were performed in 96-well polypropylene plates for 1 hour at a temperature of about 25° C. Binding reactions were terminated by rapid filtration onto 96-well Unifilter GF/C filter plates (Perkin Elmer, Shelton, Conn.) presoaked in 0.5% polyethylenimine (Sigma). Harvesting was performed using a 96-well tissue harvester (Perkin Elmer, Shelton, Conn.) followed by five filtration washes with 200 μl ice-cold binding buffer. Filter plates were subsequently dried at 50° C. for 1-2 hours. Fifty μl/well scintillation cocktail (Perkin Elmer, Shelton, Conn.) was added and plates were counted in a Packard Top-Count for 1 min/well.
as §1

[4] = target: T2, κ opioid receptor (Homo sapiens (Human), UniProt P41145); assay: κ-opioid receptor [35S]GTPγS functional assay, HEK-293 cells; assay type: biochemical; details: κ GTP; for EC50: read-out: Activity Response κ EC50 (nM) [mean ± SEM]; for Emax: relative to U69,593, read-out: Activity Response κ Emax (%)
Description: as §2
Functional [^35S]GTPγS binding assays were conducted as follows. κ opioid receptor membrane solution was prepared by sequentially adding final concentrations of 0.026 μg/μl κ membrane protein (in-house), 10 μg/mL saponin, 3 μM GDP and 0.20 nM [^35S]GTPγS to binding buffer (100 mM NaCl, 10 mM MgCl2, 20 mM HEPES, pH 7.4) on ice. The prepared membrane solution (190 μl/well) was transferred to 96-shallow well polypropylene plates containing 10 μl of 20× concentrated stock solutions of agonist prepared in DMSO. Plates were incubated for 30 min at a temperature of about 25° C. with shaking. Reactions were terminated by rapid filtration onto 96-well Unifilter GF/B filter plates (Perkin Elmer, Shelton, Conn.) using a 96-well tissue harvester (Packard) and followed by three filtration washes with 200 μl ice-cold binding buffer (10 mM NaH2PO4, 10 mM Na2HPO4, pH 7.4). Filter plates were subsequently dried at 50° C. for 2-3 hours. Fifty μl/well scintillation cocktail (Perkin Elmer, Shelton, Conn.) was added and plates were counted in a Packard Top-Count for 1 min/well.
κ GTP EC50 is the concentration of a compound providing 50% of the maximal response for the compound at a κ receptor.
κ GTP Emax (%) is the maximal effect elicited by a compound relative to the effect elicited by U69,593.
as §1, with “In” for “The following tables provide results on the efficacy of binding and activity response of exemplified Compounds of the Invention at the μ- and κ-opioid receptors. In”

[5] = target: T1, μ-opioid receptors; assay: μ-opioid receptor [35S]GTPγS functional assay, U-2 OS cells; assay type: biochemical; details: μ GTP; for EC50: read-out: Activity Response μ EC50 (nM) [mean ± SEM]; for Emax: relative to DAMGO, read-out: Activity Response μ Emax (%)
[6] = target: T2, κ opioid receptor; assay: κ-opioid receptor [35S]GTPγS functional assay, U-2 OS cells; assay type: biochemical; details: κ GTP; for EC50: read-out: Activity Response κ EC50 (nM) [mean ± SEM]; for Emax: relative to U69,593, read-out: Activity Response κ Emax (%)

| Structure (SMILES) | EC50 [1] [nM] | Emax [1] [%] | Ki [2] [nM] | Ki [3] [nM] | EC50 [4] [nM] | Emax [4] [%] | EC50 [5] [nM] | Emax [5] [%] | EC50 [6] [nM] | Emax [6] [%] |
| --- | --- | --- | --- | --- | --- | --- | --- | --- | --- | --- |
| O=C(O)C[C@H]1C[C@@]2(O)[C@H]3Cc4ccc(O)cc4[C@@]2(CCN3CC2CC2)CC1=O [Compound 9, 2-((4bR,7R,8aS,9R)-11-(cyclopropylmethyl)-3,8a-dihydroxy-6-oxo-6,7,8,8a,9,10-hexahydro-5H-9,4b-(epiminoethano)phenanthren-7-yl)acetic acid] | > 200000 | -1 | 6.18 ± 0.76 | 0.97 ± 0.19 | 17.3 ± 3.73 | 40.8 ± 1.93 |  |  |  |  |
| COc1ccc2c(c1)[C@]13CCN(CC4CC4)[C@H](C2)[C@]1(O)C[C@H](CCO)C(=O)C3 [Compound 46, (4bR,7S,8aS,9R)-11-(cyclopropylmethyl)-8a-hydroxy-7-(2-hydroxyethyl)-3-methoxy-8,8a,9,10-tetrahydro-5H-9,4b-(epiminoethano)phenanthren-6(7H)-one] |  |  | 591 ± 80.3 | 394 ± 85.2 |  |  | 409 ± 88.5 | 68.7 ± 4.1 | 1020 ± 110 | 109 ± 4.84 |
| COc1ccc2c(c1)[C@]13CCN(CC4CC4)[C@H](C2)[C@]1(O)C[C@H](CCOCc1ccccc1)C(=O)C3 [Compound 48, (4bR,7S,8aS,9R)-7-(2-(benzyloxy)ethyl)-11-(cyclopropylmethyl)-8a-hydroxy-3-methoxy-8,8a,9,10-tetrahydro-5H-9,4b-(epiminoethano)phenanthren-6(7H)-one] | 463 ± 32.6 | 139 ± 3.21 | 223 ± 32.5 | 65.3 ± 4.49 | 362 ± 36.6 | 70.3 ± 6.94 | 38.6 ± 2.85 | 98 ± 2.65 | 225 ± 20.1 | 119 ± 4.91 |
| COCC[C@H]1C[C@@]2(O)[C@H]3Cc4ccc(OC)cc4[C@@]2(CCN3CC2CC2)CC1=O [Compound 49, (4bR,7S,8aS,9R)-11-(cyclopropylmethyl)-8a-hydroxy-3-methoxy-7-(2-methoxyethyl)-8,8a,9,10-tetrahydro-5H-9,4b-(epiminoethano)phenanthren-6(7H)-one] |  |  | 1960 ± 638 | 324 ± 48 |  |  |  |  | 1280 ± 160 | 108 ± 5.57 |
| COc1ccc2c(c1)[C@]13CCN(CC4CC4)[C@H](C2)[C@@H]1C[C@@H](C(C)C)C(=O)C3 [Compound 72, (4bS,7S,8aR,9R)-11-(cyclopropylmethyl)-7-isopropyl-3-methoxy-8,8a,9,10-tetrahydro-5H-9,4b-(epiminoethano)phenanthren-6(7H)-one] | 212 ± 48.8 | 101 ± 5.55 | 476 ± 118 | 82.9 ± 1.96 | 1050 ± 193 | 69.3 ± 6.77 | 270 ± 48.2 | 60 ± 6 | 303 ± 40.4 | 102 ± 2.52 |
| CC(C)[C@@H]1C[C@H]2[C@H]3Cc4ccc(O)cc4[C@@]2(CCN3CC2CC2)CC1=O [Compound 73, (4bS,7S,8aR,9R)-11-(cyclopropylmethyl)-3-hydroxy-7-isopropyl-8,8a,9,10-tetrahydro-5H-9,4b-(epiminoethano)phenanthren-6(7H)-one] | 2.85 ± 0.6 | 53.2 ± 5.71 | 1.98 ± 0.44 | 0.32 ± 0.11 | 6.07 ± 1.92 | 61 ± 8.62 | 0.84 ± 0.13 | 28.3 ± 4.06 | 1.92 ± 0.28 | 101 ± 3.38 |
| CC(C)[C@H]1C[C@H]2[C@H]3Cc4ccc(O)cc4[C@@]2(CCN3CC2CC2)CC1=O [Compound 74, (4bS,7R,8aR,9R)-11-(cyclopropylmethyl)-3-hydroxy-7-isopropyl-8,8a,9,10-tetrahydro-5H-9,4b-(epiminoethano)phenanthren-6(7H)-one] | 2.31 ± 0.6 | 90.3 ± 3.84 | 7.42 ± 2.25 | 0.33 ± 0.041 | 3.52 ± 1 | 34 ± 5.86 | 3.66 ± 0.82 | 46 ± 11 | 1.42 ± 0.15 | 91.3 ± 3.76 |
